# Data as given in ChEMBL document CHEMBL1201862, “PubChem BioAssay data set” (2004).
#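 Each compound was tested at five concentrations against cells in 96-well plates for 48 hours. Abbreviation: GI50, concentration required for 50% inhibition of growth.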 Activity calls are given as the source filed them. Cut-off read from the data, not from the text of the source: active = GI50 up to about 1.1 µM and inactive = higher.
# What was measured:
# Test in all cases: DTP human tumour cell line panel, 48 h
# 786-0 = system: 786-0
# A498 = system: A498
# A549 = system: A549
# ACHN = system: ACHN
# CAKI-1 = system: CAKI-1
# CCRF-CEM = system: CCRF-CEM
# COLO 205 = system: COLO 205
# DLD-1 = system: DLD-1
# DMS-114 = system: DMS-114
# DMS-273 = system: DMS-273
# EKVX = system: EKVX
# HCC 2998 = system: HCC 2998
# HCT-116 = system: HCT-116
# HCT-15 = system: HCT-15
# HL-60 = system: HL-60
# HOP-62 = system: HOP-62
# HT-29 = system: HT-29
# IGROV-1 = system: IGROV-1
# K562 = system: K562
# KM-20L2 = system: KM-20L2
# KM12 = system: KM12
# LOX IMVI = system: LOX IMVI
# M14 = system: M14
# M19-MEL = system: M19-MEL
# MOLT-4 = system: MOLT-4
# Malme-3M = system: Malme-3M
# NCI-H226 = system: NCI-H226
# NCI-H23 = system: NCI-H23
# NCI-H460 = system: NCI-H460
# NCI-H522 = system: NCI-H522
# OVCAR-3 = system: OVCAR-3
# OVCAR-5 = system: OVCAR-5
# OVCAR-8 = system: OVCAR-8
# RPMI-8226 = system: RPMI-8226
# RXF 393 = system: RXF 393
# RXF 631 = system: RXF 631
# SF-268 = system: SF-268
# SF-295 = system: SF-295
# SF-539 = system: SF-539
# SK-MEL-2 = system: SK-MEL-2
# SK-MEL-5 = system: SK-MEL-5
# SK-OV-3 = system: SK-OV-3
# SN12C = system: SN12C
# SNB-19 = system: SNB-19
# SNB-75 = system: SNB-75
# SNB-78 = system: SNB-78
# SW-620 = system: SW-620
# TK-10 = system: TK-10
# U-251 = system: U-251
# UACC-257 = system: UACC-257
# UACC-62 = system: UACC-62
# UO-31 = system: UO-31
# XF498 = system: XF498
# HOP-92 = system: HOP-92
# LXFL 529 = system: LXFL 529
# OVCAR-4 = system: OVCAR-4
# SK-MEL-28 = system: SK-MEL-28
# SR = system: SR
# HOP-18 = system: HOP-18
structure (smiles),measurement,setting,value
c1ccc(OC2=NC3=S(S2)SC(Oc2ccccc2)=N3)cc1,GI50,786-0,15.5 µM (inactive)
same,GI50,A498,25.1 µM (inactive)
same,GI50,A549,21.6 µM (inactive)
same,GI50,ACHN,19.2 µM (inactive)
same,GI50,CAKI-1,17.7 µM (inactive)
same,GI50,CCRF-CEM,9.59 µM (inactive)
same,GI50,COLO 205,17.9 µM (inactive)
same,GI50,DLD-1,16.5 µM (inactive)
same,GI50,DMS-114,19.9 µM (inactive)
same,GI50,DMS-273,25.8 µM (inactive)
same,GI50,EKVX,21.5 µM (inactive)
same,GI50,HCC 2998,19.5 µM (inactive)
same,GI50,HCT-116,17.5 µM (inactive)
same,GI50,HCT-15,18.9 µM
same,GI50,HL-60,16.8 µM (inactive)
same,GI50,HOP-62,26.2 µM (inactive)
same,GI50,HT-29,21.4 µM (inactive)
same,GI50,IGROV-1,20.8 µM (inactive)
same,GI50,K562,16.5 µM (inactive)
same,GI50,KM-20L2,22.3 µM (inactive)
same,GI50,KM12,16.9 µM (inactive)
same,GI50,LOX IMVI,19.6 µM (inactive)
same,GI50,M14,18.4 µM (inactive)
same,GI50,M19-MEL,17.8 µM (inactive)
same,GI50,MOLT-4,9.98 µM (inactive)
same,GI50,Malme-3M,18.3 µM (inactive)
same,GI50,NCI-H226,24.3 µM (inactive)
same,GI50,NCI-H23,21.3 µM (inactive)
same,GI50,NCI-H460,30.2 µM (inactive)
same,GI50,NCI-H522,16.4 µM (inactive)
same,GI50,OVCAR-3,14.5 µM (inactive)
same,GI50,OVCAR-5,20.5 µM (inactive)
same,GI50,OVCAR-8,22.2 µM (inactive)
same,GI50,RPMI-8226,4.83 µM (inactive)
same,GI50,RXF 393,6.01 µM (inactive)
same,GI50,RXF 631,25.1 µM (inactive)
same,GI50,SF-268,21.7 µM (inactive)
same,GI50,SF-295,17 µM (inactive)
same,GI50,SF-539,22.3 µM (inactive)
same,GI50,SK-MEL-2,13.6 µM (inactive)
same,GI50,SK-MEL-5,18 µM (inactive)
same,GI50,SK-OV-3,28.2 µM (inactive)
same,GI50,SN12C,20.6 µM (inactive)
same,GI50,SNB-19,20.4 µM (inactive)
same,GI50,SNB-75,24.3 µM (inactive)
same,GI50,SNB-78,20.5 µM (inactive)
same,GI50,SW-620,15 µM (inactive)
same,GI50,TK-10,17.8 µM (inactive)
same,GI50,U-251,11.2 µM (inactive)
same,GI50,UACC-257,16.7 µM (inactive)
same,GI50,UACC-62,18.9 µM (inactive)
same,GI50,UO-31,18.1 µM (inactive)
same,GI50,XF498,15.7 µM (inactive)
COC(=O)C(NC(=O)c1ccccc1)C(c1c(O)cc(O)cc1O)P(=O)(OC)OC (stereo not given),GI50,A498,> 100 µM (inactive)
same,GI50,A549,> 100 µM (inactive)
same,GI50,ACHN,> 100 µM (inactive)
same,GI50,CAKI-1,> 100 µM (inactive)
same,GI50,CCRF-CEM,32 µM (inactive)
same,GI50,COLO 205,> 100 µM (inactive)
same,GI50,DLD-1,> 100 µM (inactive)
same,GI50,DMS-114,> 100 µM (inactive)
same,GI50,DMS-273,42.5 µM (inactive)
same,GI50,EKVX,> 100 µM (inactive)
same,GI50,HCC 2998,> 100 µM (inactive)
same,GI50,HCT-116,> 100 µM (inactive)
same,GI50,HCT-15,> 100 µM
same,GI50,HL-60,74 µM (inactive)
same,GI50,HOP-62,> 100 µM (inactive)
same,GI50,HOP-92,> 100 µM (inactive)
same,GI50,HT-29,> 100 µM (inactive)
same,GI50,IGROV-1,> 100 µM (inactive)
same,GI50,K562,27.2 µM (inactive)
same,GI50,KM-20L2,> 100 µM (inactive)
same,GI50,KM12,> 100 µM (inactive)
same,GI50,LOX IMVI,> 100 µM (inactive)
same,GI50,LXFL 529,54 µM (inactive)
same,GI50,M14,48.8 µM (inactive)
same,GI50,M19-MEL,> 100 µM (inactive)
same,GI50,MOLT-4,> 100 µM (inactive)
same,GI50,NCI-H226,> 100 µM (inactive)
same,GI50,NCI-H23,69.5 µM (inactive)
same,GI50,NCI-H460,95.3 µM (inactive)
same,GI50,NCI-H522,> 100 µM (inactive)
same,GI50,OVCAR-4,> 100 µM (inactive)
same,GI50,OVCAR-5,> 100 µM (inactive)
same,GI50,OVCAR-8,> 100 µM (inactive)
same,GI50,RPMI-8226,95.9 µM (inactive)
same,GI50,RXF 631,> 100 µM (inactive)
same,GI50,SF-268,> 100 µM (inactive)
same,GI50,SF-295,> 100 µM (inactive)
same,GI50,SF-539,> 100 µM (inactive)
same,GI50,SK-MEL-28,> 100 µM (inactive)
same,GI50,SK-MEL-2,> 100 µM (inactive)
same,GI50,SK-MEL-5,> 100 µM (inactive)
same,GI50,SK-OV-3,> 100 µM (inactive)
same,GI50,SN12C,> 100 µM (inactive)
same,GI50,SNB-19,> 100 µM (inactive)
same,GI50,SNB-75,> 100 µM (inactive)
same,GI50,SR,> 100 µM (inactive)
same,GI50,SW-620,> 100 µM (inactive)
same,GI50,TK-10,> 100 µM (inactive)
same,GI50,U-251,> 100 µM (inactive)
same,GI50,UACC-257,> 100 µM (inactive)
same,GI50,UACC-62,6.73 µM (inactive)
same,GI50,UO-31,> 100 µM (inactive)
same,GI50,XF498,> 100 µM (inactive)
C=CCSC[C@H](NC(=O)COc1ccccc1)C(=O)NC(C(=O)OCc1ccc([N+](=O)[O-])cc1)=C(C)C,GI50,786-0,> 100 µM (inactive)
same,GI50,A498,12.2 µM (inactive)
same,GI50,A549,62.1 µM (inactive)
same,GI50,ACHN,54 µM (inactive)
same,GI50,CCRF-CEM,45.5 µM (inactive)
same,GI50,COLO 205,20.6 µM (inactive)
same,GI50,DLD-1,> 100 µM (inactive)
same,GI50,DMS-114,45.3 µM (inactive)
same,GI50,DMS-273,50.4 µM (inactive)
same,GI50,EKVX,43.7 µM (inactive)
same,GI50,HCC 2998,> 100 µM (inactive)
same,GI50,HCT-116,> 100 µM (inactive)
same,GI50,HCT-15,65.5 µM
same,GI50,HL-60,23.3 µM (inactive)
same,GI50,HOP-18,> 100 µM (inactive)
same,GI50,HOP-62,> 100 µM (inactive)
same,GI50,HT-29,39.1 µM (inactive)
same,GI50,IGROV-1,> 100 µM (inactive)
same,GI50,K562,44.5 µM (inactive)
same,GI50,KM-20L2,> 100 µM (inactive)
same,GI50,KM12,73.5 µM (inactive)
same,GI50,LOX IMVI,64.9 µM (inactive)
same,GI50,LXFL 529,36.1 µM (inactive)
same,GI50,M14,47.9 µM (inactive)
same,GI50,M19-MEL,32.1 µM (inactive)
same,GI50,MOLT-4,19.8 µM (inactive)
same,GI50,Malme-3M,> 100 µM (inactive)
same,GI50,NCI-H226,28.6 µM (inactive)
same,GI50,NCI-H460,49.5 µM (inactive)
same,GI50,NCI-H522,26.4 µM (inactive)
same,GI50,OVCAR-3,45.7 µM (inactive)
same,GI50,OVCAR-4,62.2 µM (inactive)
same,GI50,OVCAR-8,63 µM (inactive)
same,GI50,RPMI-8226,39.2 µM (inactive)
same,GI50,RXF 393,49.7 µM (inactive)
same,GI50,RXF 631,90.8 µM (inactive)
same,GI50,SF-268,> 100 µM (inactive)
same,GI50,SF-295,50.8 µM (inactive)
same,GI50,SK-MEL-28,> 100 µM (inactive)
same,GI50,SK-MEL-2,> 100 µM (inactive)
same,GI50,SK-MEL-5,27.6 µM (inactive)
same,GI50,SK-OV-3,> 100 µM (inactive)
same,GI50,SN12C,> 100 µM (inactive)
same,GI50,SNB-75,37.6 µM (inactive)
same,GI50,SNB-78,63.2 µM (inactive)
same,GI50,U-251,76.6 µM (inactive)
same,GI50,UACC-257,52.4 µM (inactive)
same,GI50,UACC-62,72.6 µM (inactive)
same,GI50,UO-31,33.6 µM (inactive)
